Laboratory results taken from US5646136A, “Methods of inhibiting angiogenesis and tumor growth, and treating ophthalmologic conditions with angiostatic and therapeutic steroids” (Duke University, priority 1994, dated 1997).
“Also recorded” adds a separate entry of the source.

Experiments:
[1] = tested on: human pancreatic HPAF cell line; test: Growth of human pancreatic HPAF tumor in nude mice; type: in vivo
Procedure: The HPAF tumor cell line is resistant to virtually all chemotherapeutic agents and grows rapidly in the nude mouse. Growth inhibition of this tumor for a period of time is thus indicative of significant anti-tumor activity.
Nude mice were implanted subcutaneously with 500,000 cells of the human pancreatic HPAF cell line. See Selvan et al., Drug Design and Discovery 9: […] (1992). Treatment with 9α-fluoro-11β-hydroxy-16β-methyl-1,4-androstadien-3-one 17β-carboxylic acid steroid (20 mg/kg subcutaneously in 90 percent propylene glycol-ethanol, injected twice daily 6 days per week) was commenced the following day and continued for one month. Growth of tumor was inhibited for about 3 weeks compared to controls. After this point, rapid growth ensued.

glucocorticoid activity = test: Glucocorticoid activity (general statements)
[2] = tested on: corneal neovascularization; test: Inhibition of corneal neovascularization in cauterized rat corneas, topical application four times per day for four days; type: in vivo; parameters: Neovascularization (total length of blood vessels in the cornea): unit not given here; settings: for Inhibition of corneal vascularization (significance, in words): applied topically; for Corneal angiogenesis score / Neovascularization (total length of blood vessels in the cornea): mean ± S.D.; for Corneal angiogenesis score: subjective score 1+ to 4+; for Percent Inhibition of neovascularization (angiogenesis score) / Percent Inhibition (total vessel length): versus vehicle
Procedure: (§1) The ability of etianic acids to inhibit angiogenesis was evaluated in vivo in rats. Each animal had its corneas cauterized with silver nitrate/potassium nitrate. The cauterization causes the normally avascular cornea to undergo neovascularization (anglogenesis). This animal model, refined by Proia et al., Lab. Invest. 58: 473-479 (1988) and now a well-established assay, quantifies corneal neovascularization by computerized image analysis. […] Ophthalmol. Vis. Science 30: 1588-1593 (1989), and can provide a more definitive evaluation of angiostatic activity than models using the chorioallantoic membrane in the chick egg or the rabbit eye model. See Proia et al., Exp. Eye Res. (in press--to be published in Vol. 57 in 1993).
(§2) Female rats were obtained from Zivic-Miller Laboratories, Zelienople, Pa. There were 6-8 rats included in each treatment group. Neovascularization was induced by cauterizing both corneas of each anesthetized rat; this was performed by applying the tip of a silver nitrate/potassium nitrate to the cornea for 5-7.5 seconds.
The corneal tissues were treated with steroid formulations.
Steroids were formulated in vehicle containing 10 percent Tween 20 (polyoxyethylene sorbitan monolaurate) dissolved in 0.9 percent saline with percent (by volume) 0.2M tris (hydroxymethyl)aminomethane, pH 7.4. […] All steroids were tested at a concentration of 1 percent; additionally, some formulations were also tested at 0.01 percent, 0.1 percent, and 2.5 percent. Three 10 μl drops of each concentration of steroid were applied topically to each cauterized cornea four times per day (8:00 a.m., noon, 4:00 p.m., and 8:00 p.m.).
(§3) After four days of treatment, the animals were euthanized by rapid asphyxiation in a carbon dioxide chamber. The vasculature was perfused with a mixture of 10 percent india ink/11 percent gelatin/lactated Ringer's solution. Corneal tissue was dissected and prepared as flat mounts. During dissection, the corneas were examined with a dissecting microscope, and the degree of neovascularization was graded numerically from 1+ to 4+. After dehydration with alcohols, cleaning with xylene, mounting, and drying, the area of each cornea and the length of blood vessels were determined by computerized image analysis.
Statistical evaluation of inhibition of corneal neovascularization by each concentration of drug was evaluated using Mann Whitney U Tests (one-tailed; P<0.05=significant difference). […] In all cases, however, image analysis was used to quantitatively confirm visual observations.

[3] = tested on: corneal neovascularization; test: Corneal angiogenesis inhibition, subcutaneous injection once/day; type: in vivo, rat
Procedure: as §1, §2, §3
The ability of compounds 2013, 518, and 513 to inhibit corneal angiogenesis when injected subcutaneously once/day to was assessed on rats prepared as described in Example 8. Dexamethasone was used as a positive control.

thymus = test: Thymus weight of rats treated topically in the corneal angiogenesis study; type: in vivo, rat
Procedure: as §1, §2
(§4) Steroids were formulated in vehicle containing 10 percent Tween 20 (polyoxyethylene sorbitan monolaurate) dissolved in 0.9 percent saline with percent (by volume) 0.2M tris (hydroxymethyl)aminomethane, pH 7.4. The steroids dissolved readily when the pH was adjusted to 7.0-8.0 with NaOH or KOH. All steroids were tested at a concentration of 1 percent; additionally, some formulations were also tested at 0.01 percent, 0.1 percent, and 2.5 percent. Three 10 μl drops of each concentration of steroid were applied topically to each cauterized cornea four times per day (8:00 a.m., noon, 4:00 p.m., and 8:00 p.m.).
as §3

[4] = Body weight of rats treated topically in the corneal angiogenesis study; type: in vivo, rat
Procedure: as §1, §2, §4
as §3, with “Corneal tissue was dissected and prepared as flat mounts. During dissection, the corneas were examined with a dissecting microscope, and the degree of neovascularization was graded numerically from 1+ to 4+.” left out

9α-fluoro-11β-hydroxy-16β-methyl-1,4-androstadien-3-one 17β-carboxylic acid
Period for which growth of tumor was inhibited compared to controls ([1]; 20 mg/kg subcutaneously twice daily 6 days per week, one month): about 3 weeks

C=C1C[C@H]2[C@@H]3C=C(C)C4=CC(=O)C=C[C@]4(C)[C@H]3CC[C@]2(C)[C@@]1(OC(C)=O)C(C)=O [1-dehydro melegesterol acetate, 17α-acetoxy-6-methyl-16-methylene-1,4,6-pregnatriene-3,20-dione]
Glucocorticoid activity (in words) (glucocorticoid activity): lacks glucocorticoid activity

C[C@]12C[C@](C)(O)[C@H]3[C@@H](CCC4=CC(=O)C=C[C@@]43C)[C@@H]1CC[C@@H]2O [11β,17β-dihydroxy-11α-methyl-1,4-androstadien-3-one, reference compound]
Glucocorticoid activity (in words) (glucocorticoid activity): anti-glucocorticoid

C[C@]12CCC(=O)C=C1CC[C@@H]1[C@@H]2[C@@H](O)C[C@@]2(C)[C@H]1CC[C@]2(O)C(=O)O [Compound 323, 17β-carboxyl-11β,17α-dihydroxy-4-androsten-3-one]
Inhibition of corneal vascularization (significance, in words) [2]: did cause significant inhibition of corneal vascularization; also recorded: significantly suppressed
Corneal angiogenesis score ([2]; topical 0.01%): 1.7 ± 1.1
Corneal angiogenesis score ([2]; topical 0.1%): 2.1 ± 0.5
Corneal angiogenesis score ([2]; topical 1.0%): 1.3 ± 0.9
Percent Inhibition of neovascularization (angiogenesis score) ([2]; topical 1.0%): 28%

C[C@H]1C[C@H]2[C@@H]3CCC4=CC(=O)C=C[C@]4(C)[C@@]3(F)[C@@H](O)C[C@]2(C)[C@@]1(O)C(=O)O [Compound 513, 17β-carboxyl-11β,17α-dihydroxy-9α-fluoro-16β-methyl-1,4-androstadien-3-one]
Neovasc. ([3]; 10 mg/kg/day subcutaneous): 8.2 ± 1.1%
Reduction of corneal neovascularization versus vehicle ([3]; 10 mg/kg/day subcutaneous): -46.7%
Change in thymus weight (in words) (thymus; rat, in vivo): did not cause any significant change in thymus weight
Decrease of thymus weight from control (thymus; rat, in vivo): 45%
Thymus weight (thymus; rat, in vivo): 0.187±0.042 gm
Degree of inhibition of corneal angiogenesis compared with dexamethasone ([2]; 1 percent compound topical vs 0.1 percent dexamethasone sodium phosphate): appeared similar to that caused by topically applied 0.1 percent dexamethasone sodium phosphate
Inhibition of corneal vascularization (significance, in words) [2]: did cause significant inhibition of corneal vascularization
Corneal angiogenesis score ([2]; topical 0.01%): 1.8 ± 0.4
Percent Inhibition of neovascularization (angiogenesis score) ([2]; topical 0.01%): 0%
Corneal angiogenesis score ([2]; topical 0.1%): 1.1 ± 0.9
Percent Inhibition of neovascularization (angiogenesis score) ([2]; topical 0.1%): 39%
Corneal angiogenesis score ([2]; topical 1.0%): 0.4 ± 0.4
Percent Inhibition of neovascularization (angiogenesis score) ([2]; topical 1.0%): 78%
Growth of HPAF tumor (in words) ([1]; nude mice): inhibits growth of the human HPAF pancreatic tumor in nude mice
Loss of body weight (in words) ([4]; rat, in vivo): no significant loss of body weight

C[C@H]1C[C@@H]2[C@H]([C@@H](O)C[C@@]3(C)[C@H]2CC[C@]3(O)C(=O)O)[C@@]2(C)C=CC(=O)C=C12 [Compound 517, 17β-carboxyl-11β,17α-dihydroxy-6α-methyl-1,4-androstadien-3-one]
Inhibition of corneal vascularization (significance, in words) [2]: did not significantly inhibit corneal vascularization

C[C@@H]1C[C@H]2[C@@H]3CCC4=CC(=O)C=C[C@]4(C)[C@@]3(F)[C@@H](O)C[C@]2(C)[C@@]1(O)C(=O)O [Compound 518, 17β-carboxyl-11β,17α-dihydroxy-9α-fluoro-16α-methyl-1,4-androstadien-3-one]
Neovasc. ([3]; 10 mg/kg/day subcutaneous): 15.7 ± 5.8%
Inhibition of corneal vascularization (significance, in words) [2]: did not significantly inhibit corneal vascularization

C[C@]12C[C@H](O)[C@H]3[C@@H](CCC4=CC(=O)CC[C@@]43C)[C@@H]1CC[C@@H]2C(=O)O [Compound 525, 17β-carboxyl-11β-hydroxy-4-androsten-3one]
Inhibition of corneal vascularization (significance, in words) [2]: did not significantly inhibit corneal vascularization

C[C@]12CC[C@@H](O)CC1CC[C@@H]1[C@@H]2[C@@H](O)C[C@@]2(C)[C@H]1CC[C@]2(O)C(=O)O (stereo partly drawn) [Compound 526, 17β-carboxyl-3α,11β,17α-trihydroxy-androstane]
Inhibition of corneal vascularization (significance, in words) [2]: did not significantly inhibit corneal vascularization

C[C@]12CCC(=O)C=C1CC[C@@H]1[C@@H]2C(=O)C[C@@]2(C)[C@H]1CC[C@]2(O)C(=O)O [Compound 527, 17β-carboxyl-17α-hydroxy-4-androsten-3,11-dione]
Inhibition of corneal vascularization (significance, in words) [2]: did not significantly inhibit corneal vascularization

C[C@@H]1C[C@H]2[C@@H]3C[C@H](F)C4=CC(=O)C=C[C@]4(C)[C@@]3(F)[C@@H](O)C[C@]2(C)[C@@]1(O)C(=O)O [Compound 532, 6,9-difluoro-11β,17-dihydroxy-16α-methylpregna-1,4-diene-3-one-17β-carboxylic acid]
Thymus weight difference between vehicle- and drug-treated groups (in words) (thymus; rat, in vivo): no significant difference between vehicle- and drug-treated groups
Inhibition of corneal vascularization (significance, in words) [2]: did cause significant inhibition of corneal vascularization; also recorded: ability of this compound to inhibit corneal neovascularization; also recorded: significant differences between vehicle and Compound 532 at all concentrations
Neovascularization (total length of blood vessels in the cornea) ([2]; topical 0.01 percent): 355.4 ± 62.2
Percent Inhibition (total vessel length) ([2]; topical 0.01 percent): 12.3%
Neovascularization (total length of blood vessels in the cornea) ([2]; topical 0.1 percent): 322.0 ± 78.0
Percent Inhibition (total vessel length) ([2]; topical 0.1 percent): 20.6%
Neovascularization (total length of blood vessels in the cornea) ([2]; topical 1.0 percent): 202.2 ± 74.3
Percent Inhibition (total vessel length) ([2]; topical 1.0 percent): 50.1%

C[C@]12CC[C@H]3[C@@H](CCC4=CC(=O)CC[C@@]43C)[C@@H]1CC[C@@H]2C(=O)O [Compound 1000, 4-androsten-3-one-17β-carboxylic acid]
Inhibition of corneal vascularization (significance, in words) [2]: did not significantly inhibit corneal vascularization

C[C@@H]1C[C@H]2[C@@H]3CCC4=CC(=O)C=C[C@]4(C)[C@@]3(F)[C@@H](O)C[C@]2(C)[C@@]1(O)C(=O)CO [dexamethasone, reference compound]
Neovasc. ([3]; 1 mg/kg/day subcutaneous): 9.3 ± 2.2%
Reduction of corneal neovascularization versus vehicle ([3]; 1 mg/kg/day subcutaneous): -39.6%
Reduction of thymus weight (thymus; topical 0.1 percent, similar experiment): 75%
Body weight less than control rats ([4]; topical 0.1 percent, end of four days of treatment): 17%
